# Measurements reported in ChEMBL document CHEMBL2074488, “Kinetic and selectivity differences between rodent, rabbit, and human organic cation transporters (OCT1)” (J Pharmacol Exp Ther, 2000).
# What was measured:
# [1] = biological target: T1, Solute carrier family 22 member 1 (Homo sapiens, UniProt O15245); assay: (§1) TP_TRANSPORTER: inhibition of MPP+ uptake in Xenopus laevis oocytes; type: functional, cell-based, Oocyte
# T1 sequence (O15245 whole entry): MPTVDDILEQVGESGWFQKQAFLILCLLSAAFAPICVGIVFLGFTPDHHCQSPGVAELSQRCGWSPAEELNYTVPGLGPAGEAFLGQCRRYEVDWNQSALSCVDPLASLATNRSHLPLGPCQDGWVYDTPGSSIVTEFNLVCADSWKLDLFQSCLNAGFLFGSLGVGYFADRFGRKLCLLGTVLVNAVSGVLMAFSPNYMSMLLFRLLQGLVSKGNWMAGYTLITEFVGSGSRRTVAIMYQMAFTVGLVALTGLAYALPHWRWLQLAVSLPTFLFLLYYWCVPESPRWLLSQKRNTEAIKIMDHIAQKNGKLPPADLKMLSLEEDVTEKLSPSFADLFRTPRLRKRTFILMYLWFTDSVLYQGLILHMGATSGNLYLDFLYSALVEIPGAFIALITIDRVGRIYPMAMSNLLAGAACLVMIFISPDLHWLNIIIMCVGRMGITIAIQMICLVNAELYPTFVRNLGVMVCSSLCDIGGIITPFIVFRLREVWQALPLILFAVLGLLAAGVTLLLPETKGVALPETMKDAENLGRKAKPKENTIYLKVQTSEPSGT
# [2] = biological target: T2, Solute carrier family 22 member 1 (Mus musculus, UniProt O08966); assay: as §1; type: functional, cell-based, Oocyte
# T2 sequence (O08966 whole entry): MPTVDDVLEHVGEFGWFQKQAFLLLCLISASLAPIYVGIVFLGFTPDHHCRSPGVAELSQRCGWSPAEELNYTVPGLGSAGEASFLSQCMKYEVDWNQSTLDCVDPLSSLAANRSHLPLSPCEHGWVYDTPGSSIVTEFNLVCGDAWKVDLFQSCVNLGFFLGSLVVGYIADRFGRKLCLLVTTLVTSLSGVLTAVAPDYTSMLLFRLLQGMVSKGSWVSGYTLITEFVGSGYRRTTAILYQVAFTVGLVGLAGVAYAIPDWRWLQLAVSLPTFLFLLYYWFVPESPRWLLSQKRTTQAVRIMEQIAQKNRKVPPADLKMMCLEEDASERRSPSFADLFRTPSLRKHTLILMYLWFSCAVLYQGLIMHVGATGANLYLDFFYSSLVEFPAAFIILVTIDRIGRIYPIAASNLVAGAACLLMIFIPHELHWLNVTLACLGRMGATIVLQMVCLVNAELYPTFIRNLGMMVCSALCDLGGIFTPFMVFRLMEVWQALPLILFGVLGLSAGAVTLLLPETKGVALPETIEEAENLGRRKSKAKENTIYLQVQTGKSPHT
# [3] = biological target: T3, Solute carrier family 22 member 1 (Rattus norvegicus, UniProt Q63089); assay: as §1; type: functional, cell-based, Oocyte
# T3 sequence (Q63089 whole entry): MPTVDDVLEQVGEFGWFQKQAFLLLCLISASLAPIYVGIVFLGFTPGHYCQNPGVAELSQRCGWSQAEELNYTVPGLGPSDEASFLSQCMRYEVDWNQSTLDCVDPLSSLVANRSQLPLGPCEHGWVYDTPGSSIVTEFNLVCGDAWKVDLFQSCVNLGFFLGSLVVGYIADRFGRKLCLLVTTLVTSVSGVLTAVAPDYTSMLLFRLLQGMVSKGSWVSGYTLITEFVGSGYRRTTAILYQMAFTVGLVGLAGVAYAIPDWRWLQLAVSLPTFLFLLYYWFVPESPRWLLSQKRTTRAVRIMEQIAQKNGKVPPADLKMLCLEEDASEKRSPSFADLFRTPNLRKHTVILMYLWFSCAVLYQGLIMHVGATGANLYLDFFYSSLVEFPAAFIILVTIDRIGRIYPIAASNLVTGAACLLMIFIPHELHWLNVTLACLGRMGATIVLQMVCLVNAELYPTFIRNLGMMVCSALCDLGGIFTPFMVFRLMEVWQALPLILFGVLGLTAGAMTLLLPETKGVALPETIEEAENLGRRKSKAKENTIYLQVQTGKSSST
# [4] = biological target: T1, Solute carrier family 22 member 1; assay: (§2) TP_TRANSPORTER: trans-stimulation of MPP+ uptake (MPP+: 1 uM, TPeA: 200 uM) in Xenopus laevis oocytes; type: functional, cell-based; conditions: oocyte
# [5] = biological target: T2, Solute carrier family 22 member 1; assay: as §2; type: functional, cell-based; conditions: oocyte
# [6] = biological target: T3, Solute carrier family 22 member 1; assay: as §2; type: functional, cell-based; conditions: oocyte
Activity [4],Structure (SMILES),Ki [1] [µM],Ki [2] [µM],Ki [3] [µM],Activity [5],Activity [6]
–,CC[N+](CC)(CC)CC [TETRYLAMMONIUM],158,128,100,–,–
–,CCCC[N+](CCCC)(CCCC)CCCC [TETRABUTHYLAMMONIUM],29.6,7.3,17,–,–
–,CCC[N+](CCC)(CCC)CCC [TETRAPROPYLAMMONIUM],102,19.8,21,–,–
–,C[N+](C)(C)C [TETRAMETHYLAMMONIUM],12400,2040,–,–,–
is not an inhibitor [-],CCCCC[N+](CCCCC)(CCCCC)CCCCC [TETRAPENTYLAMMONIUM],–,–,–,inhibitor [trans-inhibited: (at a rough estimate) 30 % of control],inhibitor [trans-inhibited: (at a rough estimate) 80 % of control]
